{
  "source": "patent US7687079B2",
  "about": "“Methods of treating ileus” (priority 2002, dated 2010)",
  "key": {"IL-6 mRNA [1]": {"test_system": "IL-6 mRNA", "assay": "IL-6 mRNA expression in muscularis externae of intestinal grafts", "type": "in vivo, rat", "procedure": "To investigate the sequential analysis of cytokine mRNA expression in the mucosa and muscularis, RNase protection assay was performed with the Riboquant™ kit (Pharmingen) according to the protocol of the manufacturer. […] Quantification of radioactivity of mRNA bands was performed with NIH Image, normalized to GAPDH, and expressed as a ratio of cytokine /GAPDH (n=3-4).\nThe effects of inhalation of CO on transplant-induced pro-inflammatory and anti-inflammatory gene expression was assessed in muscularis extracts by RT-PCR. […] Equal aliquots (5 μg) of total RNA from each sample were quantified by spectrophotometry (wavelength […]) and aliquoted at a concentration of 40 ng/μl. Peak mRNA expression was quantified in duplicate by SYBR Green two-step, real-time RT-PCR. […] Real-time PCR data were plotted as the ΔRn, fluorescence signal versus the cycle number. […] Quantification of mRNA expression was normalized to GAPDH and calculated relative to control using the comparative CT method (Schmittgen et al., J. Biochem. Biophys. Methods 46(1-2):69-8 (2000)). […]"}, "IL-6 mRNA [2]": {"test_system": "IL-6 mRNA", "assay": "IL-6 mRNA in muscularis after IM (real time RT-PCR)", "type": "in vivo, mouse", "conditions": "IM + CO, 3 and 6 hr time points", "procedure": "Pro- and anti-inflammatory gene expression was determined by real time RT-PCR. The small intestinal muscularis externa was collected at 4 time points (3, 6, 12, and 24 hr) postoperatively and snap frozen in liquid nitrogen. Total RNA extraction was performed using the guanidium-thiocyanate phenol-chloroform extraction method as described in Eskandari et al. (Id.) RNA pellets were resuspended in RNA-secure resuspension solution (Ambion Inc., Austin, Tex.), followed by removal of potential contaminating DNA by treatment with DNase I (DNA-Free Kit, Ambion Inc., Austin, Tex.). Equal aliquots (5 μg) of total RNA from each sample were quantified by spectrophotometry (wavelength […]). Peak mRNA expression was quantified in duplicate by SYBR Green two-step, real-time RT-PCR. β-actin was used as the endogenous reference. […] Real-time PCR data were plotted as the ΔRn fluorescence signal versus the cycle number. […] Quantification of mRNA expression was normalized to β-actin and calculated relative to control using the comparative CT method.\n(§1) To exclude PCR amplification of contaminating genomic DNA, RT-negative controls (samples containing RNA which was not reverse transcribed) were included in each PCR reaction. […] PCR amplification efficiency of each target cDNA was measured by determining the colinearity of serial dilutions. […]"}, "HO-1 mRNA": {"test_system": "HO-1 mRNA", "assay": "HO-1 mRNA in muscularis after IM (real time RT-PCR)", "type": "in vivo, mouse", "procedure": "Pro- and anti-inflammatory gene expression was determined by real time RT-PCR. The small intestinal muscularis externa was collected at 4 time points (3, 6, 12, and 24 hr) postoperatively and snap frozen in liquid nitrogen. Total RNA extraction was performed using the guanidium-thiocyanate phenol-chloroform extraction method as described in Eskandari et al. (Id.) RNA pellets were resuspended in RNA-secure resuspension solution (Ambion Inc., Austin, Tex.), followed by removal of potential contaminating DNA by treatment with DNase I (DNA-Free Kit, Ambion Inc., Austin, Tex.). Equal aliquots (5 μg) of total RNA from each sample were quantified by spectrophotometry (wavelength […]). Peak mRNA expression was quantified in duplicate by SYBR Green two-step, real-time RT-PCR. β-actin was used as the endogenous reference. Aliquoted RNA (40 ng) was subjected to first-strand complementary DNA (cDNA) synthesis using random hexamers (PE applied Biosystems, Foster City, Calif.) and Super Script II (Life Technologies, Rockville, Md.). Primers were taken from the literature or designed according to published sequences (Table 3). PCR reaction mixture was prepared using SYBR Green PCR Core Reagents (PE Applied Biosystems). Each sample was estimated in duplicate using the conditions recommended by the manufacturer. Real-time PCR data were plotted as the ΔRn fluorescence signal versus the cycle number. An arbitrary threshold was set to the midlinear portion of the log ΔRn cycle plot. The threshold cycle (CT) is defined as the cycle number at which the ΔRn, crosses this threshold. Quantification of mRNA expression was normalized to β-actin and calculated relative to control using the comparative CT method.\nas §1, with “reaction. Melting curve analyses were performed for each reaction to ensure amplification of specific product.” for “reaction.”"}},
  "note": "“Also recorded” adds a separate entry of the source.",
  "data": [
    {"smiles": "[C-]#[O+]", "note": "[CO, carbon monoxide]", "values": [
      {"measurement": "IL-6 mRNA", "setting": "IL-6 mRNA [1]; SITx + CO, Table 2", "value": "22.3 ± 1.8", "unit": "% GAPDH"},
      {"measurement": "reduction of mean relative IL-6 mRNA expression", "setting": "IL-6 mRNA [1]; SITx recipients treated with CO vs SITx, 4 hours after reperfusion, p=0.084", "value": 40, "unit": "%"},
      {"measurement": "manipulation-induced IL-6 gene expression", "setting": "IL-6 mRNA [2]", "value": "no effect"},
      {"measurement": "HO-1 mRNA expression", "setting": "HO-1 mRNA; IM + CO vs IM, 3 hr but not 6 hr postoperatively", "value": "significantly increased"},
      {"measurement": "HO-1 gene expression, increase over manipulation alone", "setting": "HO-1 mRNA; IM + CO vs IM, 3 hr postoperatively", "value": 300, "unit": "%"},
      {"measurement": "HO-1 gene expression", "setting": "HO-1 mRNA; unoperated control mice, CO alone, 6 hr time point", "value": "small, though significant, increase; also recorded: increased"}
    ]}
  ]
}
